Measured values from patent US7119076B2, “Preventives or remedies for endometriosis or uterine myoma” (priority 2000, dated 2006).

Tested on: endometriosis model rats
Assay: Therapeutic effect in endometriosis model rats (autotransplanted uterine tissue on peritoneum), histology of lesion
Assay type: in vivo, Sprague-Dawley rats (female)
Details: oral, lesion excised seven days after preparation; for invasion of mast cells in lesion sample: light and electron microscopy; for degree of interstitial proliferative lesion: versus control group
Procedure: Endometriosis model rats were prepared by the method described in Michael W. Vernon et al., FERTILITY AND STERILITY, Vol. 44, No. 5, Nov. 1985. That is, endometriosis model rats were prepared as follows: Sprague-Dawley rats (female) of 8 weeks old were acclimatized for 2 weeks under 12 hours light-dark condition. From each rat, right uterine horn was excised under general anesthesia with sevoflurane and ketamine hydrochloride, and a tissue piece sizing 5 mm×5 mm was prepared therefrom. The tissue piece was subjected to autotransplantation such that the endometrium surface is attached to peritoneum.
From 24 hours after the preparation of the endometriosis model rats, commercially available clarithromycin tablets (trademark “Clarith Tablet 50 for Children” prepared by Taisho Pharmaceutical Co., Ltd) were orally administered to the rats for 3 days. […] Clarithromycin was not administered to control animals. Seven days after the preparation of the model rats, at which the model lesion reached its peak, the peritoneum tissue including the graft up to the abdominal muscle was excised to obtain a lesion sample. From the thus obtained samples, light microscope specimens (hematoxylin-eosin staining, toluidine blue staining) and electron microscope specimens (uranium-lead double staining) were prepared, and the existence of invaded mast cells, which is a symptom of endometriosis, and the degree of interstitial proliferative lesion were observed.

[1] = 10 mg/kg per day for 3 days from 24 hours after model preparation
[2] = 6 mg/kg per day for 3 days from 24 hours after model preparation

Row | SMILES | invasion of mast cells in lesion sample [1] | degree of interstitial proliferative lesion [1] | invasion of mast cells in lesion sample [2] | degree of interstitial proliferative lesion [2]
1 | CC[C@H]1OC(=O)[C@H](C)[C@@H](O[C@H]2C[C@@](C)(OC)[C@@H](O)[C@H](C)O2)[C@H](C)[C@@H](O[C@@H]2O[C@H](C)C[C@H](N(C)C)[C@H]2O)[C@](C)(OC)C[C@@H](C)C(=O)[C@H](C)[C@@H](O)[C@]1(C)O [clarithromycin] | not observed | apparently reduced | – | –
2 | CC[C@H]1OC(=O)[C@H](C)[C@@H](O[C@H]2C[C@@](C)(OC)[C@@H](O)[C@H](C)O2)[C@H](C)[C@@H](O[C@@H]2O[C@H](C)C[C@H](N(C)C)[C@H]2O)[C@](C)(O)C[C@@H](C)/C(=N\OCOCCOC)[C@H](C)[C@@H](O)[C@]1(C)O [roxithromycin] | – | – | not observed | apparently reduced
3 | CC[C@H]1OC(=O)[C@H](C)[C@@H](O[C@H]2C[C@@](C)(OC)[C@@H](O)[C@H](C)O2)[C@H](C)[C@@H](O[C@@H]2O[C@H](C)C[C@H](N(C)C)[C@H]2O)[C@](C)(O)C[C@@H](C)CN(C)[C@H](C)[C@@H](O)[C@]1(C)O [azithromycin] | not observed | apparently reduced | – | –
